# Several values for one entry are separate records, joined by “and”; a condition that tells them apart may be missing. Identical values can stand only once.
# Experiments:
# [1] = system: IEL ACE protein; experiment: IEL ACE protein by immunoblot in SBS and Sham mice given ACE-I; type: in vivo, mouse; settings: 0.6 mg/kg/day i.p. 7 days, ratio of ACE over β-actin protein
# Experimental: (§1) Short Bowel Syndrome Model: A 70% mid-small bowel resection was performed (i.e. bowel between 3.5 cm distal to the ligament of Treitz and 3.5 cm proximal to the ileocecal valve), followed by an end-to-end jejuno-ileal anastomosis with 7-0 monofilament, absorbable suture. Postoperatively a subcutaneous bolus of 3 ml 0.9% saline solution was given to maintain hydration status.
# (§2) Sham operation: Mid-small bowel was transsected and re-anastomosed without bowel-resection.
# (§3) IEL purification: Isolation of purified IEL from EC was performed by direct magnetic separation. Magnetic beads conjugated with antibody to CD45 (pan-lymphoid marker) were used to segregate IEL from EC (BioMag SelectaPure Anti-Mouse CD 45R Antibody Particles, Polyscience Inc., Warrington, Pa.). […]
# Immunoblot analysis: Protein was extracted from isolated IEL and immunoblots performed by using a Bio-Rad protein assay kit (Bio-Rad Laboratories, Hercules, Calif.), with standard methods. […] Expression for β-actin was determined in the same fashion by re-probing membranes with purified anti-mouse β-actin (1:12000, Sigma-Aldrich, St. Louis, Mo.). Results are expressed as the ratio of ACE over β-actin protein expression.
# (§4) To further understand the relevance of ACE expression on EC apoptosis, ACE-inhibition was used. […] After 1 week, mice were killed, EC apoptotic rates assessed, and IEL mRNA and protein isolated.
# [2] = system: epithelial cell (EC) apoptosis; experiment: Epithelial cell apoptosis/necrosis by Annexin V / propidium iodide flow cytometry in SBS and Sham mice given ACE-I; type: in vivo, mouse; settings: 0.6 mg/kg/day i.p., 1 week
# Experimental: (§5) Animals: Male, 2 month old, C57BL/6J mice (Jackson Laboratories, Bar Harbor, Me.) were maintained in a 12-hour day-night rhythm at 23° C. and a relative humidity of 40%-60%. 24 hours before surgery chow was exchanged to micro-stabilized rodent liquid diet (TestDiet, Richmond, Ind.). Anesthesia was achieved using sodium pentobarbital (50 mg/kg body weight, intraperitoneally, i.p.). For some experiments B6.129P2-Ace^tm2Unc (ACE^−/−; lacking somatic ACE, generous gift from the Dr. O. Smithies, Duke University), or B6;129S6-Tnf^tm1Gkl (TNF-α-knockout mice, Jackson Labs) were used. Studies conformed, and were approved by the University Committee on Use and Care of Animals at the University of Michigan.
# as §1, §2
# Annexin V staining: Apoptosis was determined by flow cytometry based on the cell surface expression of phosphatidylserine using Annexin V staining (BD PharMingen, San Diego, Calif.). Propidium iodide was utilized to simultaneously monitor cell necrosis. Flow cytometry was performed by using standard techniques. Separation of EC from IEL was done by forward- and side-scatter gating characteristics. Further confirmation of EC and IEL purity was performed with specific staining of EC with antibody generated by a hybridoma G8.8 and a pan-lymphoid antibody (anti-CD45, PharMingen, San Diego, Calif.): Purity exceeded >98%.
# Mucosal cell isolation: Isolation of mucosal cells was performed using standard protocols. […]
# as §4
# [3] = system: DSS-induced colitis; experiment: DSS-induced colitis mouse model; type: in vivo
# Experimental: Male C57BL/6 specific-pathogen-free 2-month-old mice were kept in a 12-hour day/night environment maintained at 23° C. and a relative humidity of 40-60%. All mice drank 2.5% (w/v) DSS in water for 7 days followed by one day of plain water, while being fed normal mouse chow. Mice either received daily enalaprilat injection (0.015 mg/day, injection volume 0.5 ml, intraperitoneal) (n=6, “ACE-I”) or daily normal saline injection 0.5 ml (n=6, “Saline”). Body weight and hemoccult stool reaction were recorded. After the eight days of treatment, mice were euthanized with CO2, and colonic samples were immediately taken for histology and mucosal RNA extraction. Distal 1-cm colonic segments were excised, opened longitudinally, and fixed in 10% neutral buffered formalin. The remainder of the colon, including the cecum, was washed, cut into pieces, and mixed gently at 37° C. in EDTA/dithiothreitol buffer. The resulting mixture of epithelial cells and intraepithelial lymphocytes was then filtered through nylon wool and pelleted by centrifugation. Total RNA of the cell pellet was obtained using TRIZOL reagent and chloroform-isopropanol-ethanol extraction. Reverse transcription of RNA was done in the presence of RNAse inhibitor. RT product was then amplified with forward and reverse primers specific for ACE, TNF-α, and beta-actin, using real-time semiquantitative PCR. PCR results were analyzed by expressing ACE and TNF-α levels as a ratio to beta-actin levels, and were compared using a 2-tailed students' T test. Histologic grading of colitis was done by blinded observers using a standard scale for colitis severity. Histologic scores, as well as body weights and hemoccult results, were compared between groups using a 2-tailed homoscedastic T test.
# [4] = system: IEL ACE mRNA; experiment: IEL ACE mRNA by real time PCR in SBS and Sham mice given ACE-I; type: in vivo, mouse; settings: enalaprilat 0.6 mg/kg/day i.p. 7 days, ratio ACE-cDNA copies over β-actin-cDNA copies
# Experimental: as §1, §2
# as §3, with “Pa.). Magnetic separation was performed twice to further deplete EC.” for “Pa.).”
# Real time PCR: Real-time PCR was run to better quantify actual changes in ACE expression. cDNA was also used for real time PCR. The same primers for ACE and β-actin were used as for conventional PCR, SYBR Green I was utilized for fluorescence. […] Ct- values of ACE and β-actin were converted to numbers of cDNA copies, and results expressed as the ratio of ACE over β-actin expression.
# as §4
# [5] = system: SBS mice; experiment: Histology (villus height, crypt depth) of mid-small bowel in SBS and Sham mice given ACE-I; type: in vivo, mouse; settings: for Crypt depth / Villus height: 0.6 mg/kg/day i.p., 1 week postoperatively, 0.6 mg/kg/day
# Experimental: as §5, §1, §2
# Histology: A 0.5 cm segment of mid-small bowel was fixed in 10% formaldehyde, and processed for hematoxylin and eosin staining. Villus height and crypt depth were measured using a calibrated micrometer. Each measurement consisted of a mean of 16 different low power fields.
# (§6) To further understand the relevance of ACE expression on EC apoptosis, ACE-inhibition was used. ACE-I (enalaprilat, 0.6 mg/kg/day i.p.) was given to both SBS (SBS+ACE-I), and sham operated (Sham+ACE-I) mice over a 7 day period, starting on the day after surgery. This latter group was studied as an additional control to assess the effects of ACE-I in the absence of a SBS. After 1 week, mice were killed, EC apoptotic rates assessed, and IEL mRNA and protein isolated.
# [6] = system: IEL TNF-α mRNA; experiment: IEL TNF-α mRNA by RT-PCR in SBS and Sham mice given ACE-I; type: in vivo, mouse; settings: for IEL TNF-α mRNA: 0.6 mg/kg/day i.p. 7 days, ratio over β-actin mRNA
# Experimental: as §1, §2
# IEL purification: Isolation of purified IEL from EC was performed by direct magnetic separation. Magnetic beads conjugated with antibody to CD45 (pan-lymphoid marker) were used to segregate IEL from EC (BioMag SelectaPure Anti-Mouse CD 45R Antibody Particles, Polyscience Inc., Warrington, Pa.). Magnetic separation was performed twice to further deplete EC. Final IEL purity was greater than 99% by flow cytometry.
# Isolation of total RNA: A guanidine isothiocyanate/chloroform extraction method was performed using Trizol (Gibco BRL, Gaithersburg, Md.) according to manufacturer's directions.
# Reverse transcriptase polymerase chain reaction (RT-PCR): mRNA (poly-A positive) was reversed transcribed into cDNA following a standard protocol. Specific primers for selected gene sequences were designed. PCR and gel were run under standard conditions. To ensure that DNA product was generated at the exponential portion of the product curve, the following cycle numbers were used: 28 cycles for ACE; 32 cycles for Rap2 interacting protein and TNF-α; and 34 cycles for lipocalin 2, amphiregulin, leucine-rich-α2-glycoprotein, and angiotensin II receptors. Gel bands were analyzed by DNA sequencing to ensure the correct product. Kodak EDAS System (Rochester, N.Y.) was used for imaging and quantification. Results were expressed as the ratio of the investigated mRNA over the β-actin mRNA expression.
# as §4
# [7] = system: epithelial cell (EC) apoptosis; experiment: Epithelial cell apoptosis by TUNEL staining in SBS and Sham mice given ACE-I; type: in vivo, mouse; settings: for EC Apoptosis (TUNEL analysis): 0.6 mg/kg/day i.p. 7 days
# Experimental: as §5, §1, §2
# TUNEL staining: Paraffin-embedded tissue was assayed with TUNEL (Terminal deoxynucleotidyl transferase Biotin-dUTP Nick End Labeling) staining, according to slight modification of manufacturer's instructions (ApopTag InSitu Apoptosis Detection Kit, Serological Corporation, Norcross, Ga.): slides were incubated with only ⅓ of the recommended concentration of TdT enzyme, in order to avoid over-staining. Apoptosis rate (percent of EC showing apoptosis) was assessed with TUNEL staining and by morphological criteria (nuclear margination, chromatin and cytoplasmic condensation, shrinkage from neighboring cells, and formation of apoptotic bodies with nuclear and cytoplasmic fragmentation). Each assessment of apoptosis consists of the mean of 8 different crypt-villus-complexes.
# as §6
# [8] = ACE-I administration to SBS mice
compound,measurement,setting,value
"C[C@H](N[C@@H](CCc1ccccc1)C(=O)O)C(=O)N1CCC[C@H]1C(=O)O [ACE-I, enalaprilat]",IEL ACE protein,[1]; SBS + ACE-I mice,0.14 ± 0.03
same,IEL ACE protein,[1]; Sham + ACE-I mice,0.13 ± 0.01
same,EC necrosis (propidium iodide),[2]; SBS + ACE-I mice,5.2±2.6%
same,EC necrosis (propidium iodide),[2]; Sham + ACE-I mice,5.2±2.6%
same,EC apoptosis (Annexin V staining),"[2]; Sham + ACE-I mice, flow cytometry",16.9±8.8%
same,ACE levels (mRNA),"[3]; DSS + ACE-I, colonic mucosal ACE as a ratio to beta-actin levels",0.08 ± 0.13
same,Hemocult onset,"[3]; DSS + ACE-I, enalaprilat 0.015 mg/day i.p. daily",4.8 ± 0.8 days
same,Body Weight Loss,"[3]; DSS + ACE-I, enalaprilat 0.015 mg/day i.p. daily, 2.5% DSS 7 days",16.6 ±+2.7%
same,Histologic Grade (histologic colitis score),"[3]; DSS + ACE-I, enalaprilat 0.015 mg/day i.p. daily, after eight days",11.8 ± 1.5
same,Colon histology (FIG. 5),"[3]; DSS colitis, daily enalaprilat injection, saline controls: essentially complete loss of crypts",significant areas retaining colonic crypts as well as surface epithelial cells
same,Time course of development of heme-positive stools,[3]; compared to mice treated only with saline injection (FIG. 6),significantly delayed
same,IEL ACE mRNA,[4]; SBS + ACE-I mice,0.63 ± 0.25
same,IEL ACE mRNA,[4]; Sham + ACE-I mice,0.66 ± 0.22
same,Change in crypt depth compared to SBS mice,[5]; [8],"significant (P=0.02), additional increase in crypt depth"
same,Change in villus height compared to SBS mice,[5]; [8],unchanged
same,Crypt depth,[5]; SBS + ACE-I mice,145±22 μm and 145 ± 22° μm
same,Villus height,[5]; SBS + ACE-I mice,552±56 μm
same,Alterations in histological features,[5]; Sham + ACE-I mice,no significant alterations
same,Crypt depth,[5]; Sham + ACE-I mice,87±6 μm
same,Villus height,[5]; Sham + ACE-I mice,340±20 μm
same,IEL TNF-α mRNA,[6]; SBS + ACE-I mice,0.5 ± 0.07
same,IEL TNF-α mRNA,[6]; Sham + ACE-I mice,0.37 ± 0.07
same,Expression of TNF-α (FIG. 4),[6]; mice with massive small bowel resection administered ACE-I,decreased expression of TNF-α
same,Decline of apoptotic rate (TUNEL) compared to untreated SBS mice,[7]; SBS + ACE-I group,58%
same,EC Apoptosis (TUNEL analysis),[7]; SBS + ACE-I mice,1.8 ± 0.5%
same,Decrease of EC apoptosis (TUNEL) compared to untreated Sham mice,[7]; Sham + ACE-I group,48%
same,EC Apoptosis (TUNEL analysis),[7]; Sham + ACE-I mice,1.9 ± 0.4 %
same,Location of apoptotic cells (TUNEL),"[7]; after ACE-I administration, untreated SBS and Sham: crypts and lower villi",confined to the crypts
